Experimental data reported in the NIST ThermoML archive (doi:10.1016/j.jct.2010.08.010).
Numbers after ± are expanded uncertainties.

Settings: Liquid, Buoyancy - hydrostatic balance with magnetic suspension - one sinker

CCO [ethanol]
mass density (233.15 K, 103.29 kPa): 840.318 ± 0.2 kg/m3 | mass density (233.15 K, 1104.7 kPa): 840.959 ± 0.2 kg/m3 | mass density (233.15 K, 2004.6 kPa): 841.531 ± 0.2 kg/m3 | mass density (233.15 K, 4076.8 kPa): 842.835 ± 0.2 kg/m3 | mass density (233.15 K, 6134.1 kPa): 844.107 ± 0.2 kg/m3 | mass density (233.15 K, 8092.6 kPa): 845.306 ± 0.2 kg/m3 | mass density (233.15 K, 10007 kPa): 846.455 ± 0.2 kg/m3 | mass density (233.15 K, 12137 kPa): 847.721 ± 0.2 kg/m3 | mass density (233.15 K, 14139 kPa): 848.897 ± 0.2 kg/m3 | mass density (233.15 K, 16099 kPa): 850.035 ± 0.2 kg/m3 | mass density (233.15 K, 18082 kPa): 851.168 ± 0.2 kg/m3 | mass density (233.15 K, 20011 kPa): 852.258 ± 0.2 kg/m3 | mass density (233.15 K, 22096 kPa): 853.419 ± 0.2 kg/m3 | mass density (233.15 K, 24040 kPa): 854.493 ± 0.2 kg/m3 | mass density (233.15 K, 25991 kPa): 855.559 ± 0.2 kg/m3 | mass density (233.15 K, 27978 kPa): 856.635 ± 0.2 kg/m3 | mass density (233.15 K, 29956 kPa): 857.691 ± 0.2 kg/m3 | mass density (253.15 K, 102.67 kPa): 823.303 ± 0.19 kg/m3 | mass density (253.15 K, 1104.1 kPa): 824.013 ± 0.19 kg/m3 | mass density (253.15 K, 2003.9 kPa): 824.651 ± 0.19 kg/m3 | mass density (253.15 K, 4116.4 kPa): 826.119 ± 0.19 kg/m3 | mass density (253.15 K, 6065.7 kPa): 827.455 ± 0.19 kg/m3 | mass density (253.15 K, 8137.6 kPa): 828.849 ± 0.19 kg/m3 | mass density (253.15 K, 10136 kPa): 830.174 ± 0.19 kg/m3 | mass density (253.15 K, 12072 kPa): 831.443 ± 0.19 kg/m3 | mass density (253.15 K, 14126 kPa): 832.763 ± 0.19 kg/m3 | mass density (253.15 K, 16133 kPa): 834.037 ± 0.19 kg/m3 | mass density (253.15 K, 17950 kPa): 835.17 ± 0.2 kg/m3 | mass density (253.15 K, 19863 kPa): 836.357 ± 0.2 kg/m3 | mass density (253.15 K, 22055 kPa): 837.687 ± 0.2 kg/m3 | mass density (253.15 K, 23993 kPa): 838.859 ± 0.2 kg/m3 | mass density (253.15 K, 25929 kPa): 840.004 ± 0.2 kg/m3 | mass density (253.15 K, 27985 kPa): 841.212 ± 0.2 kg/m3 | mass density (253.15 K, 30009 kPa): 842.379 ± 0.2 kg/m3 | mass density (273.15 K, 102.91 kPa): 806.406 ± 0.19 kg/m3 | mass density (273.15 K, 1099 kPa): 807.191 ± 0.19 kg/m3 | mass density (273.15 K, 2003.9 kPa): 807.905 ± 0.19 kg/m3 | mass density (273.15 K, 4161.8 kPa): 809.57 ± 0.19 kg/m3 | mass density (273.15 K, 6026.6 kPa): 810.981 ± 0.19 kg/m3 | mass density (273.15 K, 8023.2 kPa): 812.466 ± 0.19 kg/m3 | mass density (273.15 K, 10006 kPa): 813.916 ± 0.19 kg/m3 | mass density (273.15 K, 12107 kPa): 815.421 ± 0.19 kg/m3 | mass density (273.15 K, 13929 kPa): 816.718 ± 0.19 kg/m3 | mass density (273.15 K, 15980 kPa): 818.142 ± 0.19 kg/m3 | mass density (273.15 K, 17875 kPa): 819.435 ± 0.19 kg/m3 | mass density (273.15 K, 20011 kPa): 820.885 ± 0.19 kg/m3 | mass density (273.15 K, 21848 kPa): 822.104 ± 0.19 kg/m3 | mass density (273.15 K, 24050 kPa): 823.548 ± 0.19 kg/m3 | mass density (273.15 K, 25880 kPa): 824.728 ± 0.19 kg/m3 | mass density (273.15 K, 27865 kPa): 826.002 ± 0.19 kg/m3 | mass density (273.15 K, 29956 kPa): 827.312 ± 0.19 kg/m3 | mass density (293.15 K, 103.01 kPa): 789.433 ± 0.18 kg/m3 | mass density (293.15 K, 1103.9 kPa): 790.313 ± 0.18 kg/m3 | mass density (293.15 K, 2004 kPa): 791.096 ± 0.18 kg/m3 | mass density (293.15 K, 4147.8 kPa): 792.937 ± 0.18 kg/m3 | mass density (293.15 K, 6147.5 kPa): 794.616 ± 0.18 kg/m3 | mass density (293.15 K, 8110.8 kPa): 796.232 ± 0.19 kg/m3 | mass density (293.15 K, 10008 kPa): 797.758 ± 0.19 kg/m3 | mass density (293.15 K, 11860 kPa): 799.229 ± 0.19 kg/m3 | mass density (293.15 K, 13880 kPa): 800.802 ± 0.19 kg/m3 | mass density (293.15 K, 15954 kPa): 802.391 ± 0.19 kg/m3 | mass density (293.15 K, 17852 kPa): 803.817 ± 0.19 kg/m3 | mass density (293.15 K, 19967 kPa): 805.383 ± 0.19 kg/m3 | mass density (293.15 K, 21842 kPa): 806.743 ± 0.19 kg/m3 | mass density (293.15 K, 23888 kPa): 808.2 ± 0.19 kg/m3 | mass density (293.15 K, 25963 kPa): 809.658 ± 0.19 kg/m3 | mass density (293.15 K, 27862 kPa): 810.975 ± 0.19 kg/m3 | mass density (293.15 K, 30031 kPa): 812.452 ± 0.19 kg/m3 | mass density (313.15 K, 102.5 kPa): 772.101 ± 0.18 kg/m3 | mass density (313.15 K, 1103.5 kPa): 773.094 ± 0.18 kg/m3 | mass density (313.15 K, 2103.5 kPa): 774.069 ± 0.18 kg/m3 | mass density (313.15 K, 4116 kPa): 775.994 ± 0.18 kg/m3 | mass density (313.15 K, 6079.7 kPa): 777.835 ± 0.18 kg/m3 | mass density (313.15 K, 8130.4 kPa): 779.714 ± 0.18 kg/m3 | mass density (313.15 K, 10007 kPa): 781.394 ± 0.18 kg/m3 | mass density (313.15 K, 12116 kPa): 783.241 ± 0.18 kg/m3 | mass density (313.15 K, 14081 kPa): 784.928 ± 0.18 kg/m3 | mass density (313.15 K, 16092 kPa): 786.617 ± 0.18 kg/m3 | mass density (313.15 K, 18056 kPa): 788.235 ± 0.18 kg/m3 | mass density (313.15 K, 19919 kPa): 789.747 ± 0.18 kg/m3 | mass density (313.15 K, 22046 kPa): 791.432 ± 0.18 kg/m3 | mass density (313.15 K, 24130 kPa): 793.056 ± 0.18 kg/m3 | mass density (313.15 K, 26107 kPa): 794.571 ± 0.18 kg/m3 | mass density (313.15 K, 27987 kPa): 795.987 ± 0.19 kg/m3 | mass density (313.15 K, 29995 kPa): 797.476 ± 0.19 kg/m3 | mass density (333.15 K, 1102.5 kPa): 755.18 ± 0.18 kg/m3 | mass density (333.15 K, 2002.7 kPa): 756.173 ± 0.18 kg/m3 | mass density (333.15 K, 4085.9 kPa): 758.43 ± 0.18 kg/m3 | mass density (333.15 K, 6133 kPa): 760.589 ± 0.18 kg/m3 | mass density (333.15 K, 8031.9 kPa): 762.538 ± 0.18 kg/m3 | mass density (333.15 K, 9967.1 kPa): 764.48 ± 0.18 kg/m3 | mass density (333.15 K, 12099 kPa): 766.557 ± 0.18 kg/m3 | mass density (333.15 K, 13992 kPa): 768.358 ± 0.18 kg/m3 | mass density (333.15 K, 16124 kPa): 770.342 ± 0.18 kg/m3 | mass density (333.15 K, 18019 kPa): 772.071 ± 0.18 kg/m3 | mass density (333.15 K, 20012 kPa): 773.85 ± 0.18 kg/m3 | mass density (333.15 K, 22050 kPa): 775.625 ± 0.18 kg/m3 | mass density (333.15 K, 24136 kPa): 777.409 ± 0.18 kg/m3 | mass density (333.15 K, 26130 kPa): 779.08 ± 0.18 kg/m3 | mass density (333.15 K, 28069 kPa): 780.679 ± 0.18 kg/m3 | mass density (333.15 K, 30018 kPa): 782.258 ± 0.18 kg/m3 | mass density (353.15 K, 1101.8 kPa): 736.102 ± 0.17 kg/m3 | mass density (353.15 K, 2002.9 kPa): 737.255 ± 0.17 kg/m3 | mass density (353.15 K, 4009.6 kPa): 739.749 ± 0.17 kg/m3
